Experimental data as given in patent US7973032B2, “Staurosporine derivatives for use in alveolar rhabdomyosarcoma” (University of Zurich, priority 2005, dated 2011).

How the values were obtained:
aRMS cells [1] = assay: cell growth of aRMS cells in vitro; type: cell-based
From the text: (§1) Recently, we have established a gene signature characteristic for the Pediatric sarcoma alveolar rhabdomyosarcoma (aRMS), which expresses the chimaeric fusion protein PAX3/FKHR due to a chromosomal translocation event t(2; 13). Based on this signature, a number of potential therapeutic target molecules have been selected for further study, such as FGFR2. […] Furthermore, tumor growth could also be inhibited in vivo using a mouse xenograft tumor model.

aRMS cells [2] = assay: apoptosis / caspase 3 activity in aRMS cells; type: cell-based; conditions: aRMS cells in vitro
From the text: as §1

aRMS = assay: mouse xenograft tumor model; conditions: in vivo
From the text: as §1

PAX3/FKHR = biological target: T1, PAX3/FKHR (Homo sapiens, UniProt P23760+Q12778); assay: expression of PAX3/FKHR specific target gene CB1; type: cell-based; conditions: upon treatment
T1 construct: FKHR (FOXO1, Q12778) C-terminal portion as fusion partner; endogenous in cells
T1 sequence (P23760+Q12778 fused): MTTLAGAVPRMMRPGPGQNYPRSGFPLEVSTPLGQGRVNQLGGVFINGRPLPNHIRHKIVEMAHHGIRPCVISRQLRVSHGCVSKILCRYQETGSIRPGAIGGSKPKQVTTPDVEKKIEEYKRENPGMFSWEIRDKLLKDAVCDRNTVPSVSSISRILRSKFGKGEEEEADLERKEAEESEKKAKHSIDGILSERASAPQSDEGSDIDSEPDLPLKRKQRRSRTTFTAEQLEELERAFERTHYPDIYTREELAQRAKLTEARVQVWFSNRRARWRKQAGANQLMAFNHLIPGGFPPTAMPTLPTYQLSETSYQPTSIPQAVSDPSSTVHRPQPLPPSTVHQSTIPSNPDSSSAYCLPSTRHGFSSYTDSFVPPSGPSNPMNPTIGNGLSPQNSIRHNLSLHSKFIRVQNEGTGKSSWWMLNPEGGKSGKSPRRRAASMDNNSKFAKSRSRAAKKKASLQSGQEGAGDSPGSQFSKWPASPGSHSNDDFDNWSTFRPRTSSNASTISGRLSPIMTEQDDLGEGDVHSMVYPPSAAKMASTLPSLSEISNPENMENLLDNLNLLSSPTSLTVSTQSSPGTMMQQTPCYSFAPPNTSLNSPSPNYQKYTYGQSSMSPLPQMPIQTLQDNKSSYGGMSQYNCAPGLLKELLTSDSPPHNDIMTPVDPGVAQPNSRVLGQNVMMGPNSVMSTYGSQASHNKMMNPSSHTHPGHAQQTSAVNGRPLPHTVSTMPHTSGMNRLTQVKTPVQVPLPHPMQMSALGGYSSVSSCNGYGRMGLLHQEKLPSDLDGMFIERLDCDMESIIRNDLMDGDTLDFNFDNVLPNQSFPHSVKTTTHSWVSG

## CO[C@@H]1[C@H](N(C)C(=O)c2ccccc2)C[C@H]2O[C@]1(C)n1c3ccccc3c3c4c(c5c6ccccc6n2c5c31)C(=O)NC4 [PKC412, N-[(9S,10R,11R,13R)-2,3,10,11,12,13-hexahydro-10-methoxy-9-methyl-1-oxo-9,13-epoxy-1H,9H-diindolo[1,2,3-gh:3′,2′,1′-Im]pyrrolo[3,4-j][1,7]benzodiazonin-11-yl]-N-methylbenzamide]
aRMS cells [1]
  cell growth of aRMS cells: efficiently inhibit cell growth
aRMS cells [2]
  apoptosis: induce apoptosis
  caspase 3 activity: enhanced caspase 3 activity
aRMS
  tumor growth: inhibited
PAX3/FKHR
  CB1 expression: completely abolished
